Laboratory results taken from US10980889B1 (Revolution Medicines, Inc., priority 2018, dated 2021).

How the values were obtained:
P-P70S6K (T389) = assay: Cell based AlphaLISA assay, inhibition of P-P70S6K (T389) in MDA-MB-468 cells (mTORC1 substrate); conditions: AlphaLisa, two to four hours at 37° C.; for IC50: Homo sapiens, 4 h, read-out: pIC50 for Inhibition of mTORC1 and mTORC2 Substrate Phosphorylation p-P70S6K-(T389) (converted)
Procedure, shortened: (§1)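 In MDA-MB-468 cells, phosphorylation of 4EBP1 (Thr37/46), P70S6K (Thr389) and AKT (Ser473) was measured after incubation with inhibitor by AlphaLISA SureFire Ultra on cell lysates, in duplicate. IC50 values came from control-normalized concentration-response regression.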

P-Akt (S473) = assay: Cell based AlphaLISA assay, inhibition of P-Akt (S473) in MDA-MB-468 cells (mTORC2 substrate); conditions: AlphaLisa, two to four hours at 37° C.; for IC50: Homo sapiens, 4 h, read-out: pIC50 for Inhibition of mTORC1 and mTORC2 Substrate Phosphorylation p-AKT1/2/3-(S473) (converted)
Procedure, shortened: as §1

P-4E-BP1 (T37/46) = assay: Cell based AlphaLISA assay, inhibition of P-4E-BP1 (T37/46) in MDA-MB-468 cells (mTORC1 substrate); conditions: AlphaLisa, two to four hours at 37° C.; for IC50: Homo sapiens, 4 h, read-out: pIC50 for Inhibition of mTORC1 and mTORC2 Substrate Phosphorylation P-4E-BP1-(T37/46) (converted)
Procedure, shortened: as §1

Row | SMILES | IC50 (P-P70S6K (T389)) [nM] | IC50 (P-Akt (S473)) [nM] | IC50 (P-4E-BP1 (T37/46)) [nM] | pIC50 for Inhibition of mTORC1 and mTORC2 Substrate Phosphorylation p-P70S6K-(T389) (P-P70S6K (T389)) | pIC50 for Inhibition of mTORC1 and mTORC2 Substrate Phosphorylation p-AKT1/2/3-(S473) (P-Akt (S473)) | pIC50 for Inhibition of mTORC1 and mTORC2 Substrate Phosphorylation P-4E-BP1-(T37/46) (P-4E-BP1 (T37/46))
1 | CO[C@H]1C[C@@H]2CC[C@@H](C)[C@@](O)(O2)C(=O)C(=O)N2CCCC[C@H]2C(=O)O[C@H]([C@H](C)C[C@@H]2CC[C@@H](OC(=O)NCc3cnc(N4CCN(C(=O)CCOCCN5CCN(c6ncc(C(=O)N7CCc8cc(Cn9nc(-c%10ccc%11oc(N)nc%11c%10)c%10c(N)ncnc%109)ccc8C7)cn6)CC5)CC4)nc3)[C@H](OC)C2)CC[C@H](C)/C=C(\C)[C@@H](O)[C@@H](OC)C(=O)[C@H](C)C[C@H](C)/C=C/C=C/C=C/1C [Example 118] | < 1 | 3.16 to 31.6 | < 3.16 | – | – | –
2 | CO[C@H]1C[C@@H]2CC[C@@H](C)[C@@](O)(O2)C(=O)C(=O)N2CCCC[C@H]2C(=O)O[C@H]([C@H](C)C[C@@H]2CC[C@@H](OC(=O)NCc3cnc(N4CCN(c5ncc(C(=O)NCCOCCOCCOCCOCCC(=O)N6CCc7cc(Cn8nc(-c9cnc%10[nH]ccc%10c9)c9c(N)ncnc98)ccc7C6)c(N)n5)CC4)nc3)[C@H](OC)C2)CC(=O)[C@H](C)/C=C(\C)[C@@H](O)[C@@H](OC)C(=O)[C@H](C)C[C@H](C)/C=C/C=C/C=C/1C [Example 96] | < 1 | 31.6 to 1000 | < 3.16 | – | – | –
3 | CO[C@H]1C[C@@H]2CC[C@@H](C)[C@@](O)(O2)C(=O)C(=O)N2CCCC[C@H]2C(=O)O[C@H]([C@H](C)C[C@@H]2CC[C@@H](OC(=O)NCc3cnc(N4CCN(C(=O)CCOCCN5CCN(C(=O)CCC(=O)NCCCCn6nc(-c7cnc8[nH]ccc8c7)c7c(N)ncnc76)CC5)CC4)nc3)[C@H](OC)C2)CC(=O)[C@H](C)/C=C(\C)[C@@H](O)[C@@H](OC)C(=O)[C@H](C)C[C@H](C)/C=C/C=C/C=C/1C [Example 116] | < 1 | > 1000 | < 3.16 | – | – | –
4 | CO[C@H]1C[C@@H]2CC[C@@H](C)[C@@](O)(O2)C(=O)C(=O)N2CCCC[C@H]2C(=O)O[C@H]([C@H](C)C[C@@H]2CC[C@@H](OC(=S)NCc3cnc(N4CCN(C(=O)CCOCCN5CCN(c6ncc(C(=O)N7CCc8cc(Cn9nc(-c%10ccc%11oc(N)nc%11c%10)c%10c(N)ncnc%109)ccc8C7)cn6)CC5)CC4)nc3)[C@H](OC)C2)C[C@@H](OC)[C@H](C)/C=C(\C)[C@@H](O)[C@@H](OC)C(=O)[C@H](C)C[C@H](C)/C=C/C=C/C=C/1C [Example 121] | < 1 | > 1000 | < 3.16 | – | – | –
5 | CO[C@H]1C[C@@H]2CC[C@@H](C)[C@@](O)(O2)C(=O)C(=O)N2CCCC[C@H]2C(=O)O[C@H]([C@H](C)C[C@@H]2CC[C@@H](OC(=O)NCc3cnc(N4CCN(C(=O)CCOCCN5CCN(c6ncc(C(=O)NCCS(=O)(=O)c7ccc(C(=O)N8CCOc9ccc(-c%10ccc(N)nc%10)cc9C8)c(C)c7F)cn6)CC5)CC4)nc3)[C@H](OC)C2)C[C@@H](O)[C@H](C)/C=C(\C)[C@@H](O)[C@@H](OC)C(=O)[C@H](C)C[C@H](C)/C=C/C=C/C=C/1C [Example 122] | < 1 | 3.16 to 31.6 | < 3.16 | – | – | –
6 | CO[C@H]1C[C@@H]2CC[C@@H](C)[C@@](O)(O2)C(=O)C(=O)N2CCCC[C@H]2C(=O)O[C@H]([C@H](C)C[C@@H]2CC[C@@H](OC(=O)NCc3cnc(N4CCN(c5ncc(C(=O)N(C)CCOCCOCCOCCOCCC(=O)N6CCc7cc(Cn8nc(-c9ccc%10oc(N)nc%10c9)c9c(N)ncnc98)ccc7C6)c(N)n5)CC4)nc3)[C@H](OC)C2)C[C@@H](OC)[C@H](C)/C=C(\C)[C@@H](O)[C@@H](OC)C(=O)[C@H](C)C[C@H](C)/C=C/C=C/C=C/1C [Example 107] | – | – | – | +++ (≥9) | − (<6) | − (<6)
